EC50 and IC50 data for four compounds are collected here from patent US10669271B2, “Heterocyclic compounds as immunomodulators” (Incyte Corporation, priority 2018, dated 2020).

The subject of test [1] is PD-L1 aAPC/CHO-K1 cells and Jurkat-PD-1-NFAT effector cells. Kind of test: Nuclear factor of activated T-cells (NFAT) assay. Format: cell-based. To be noted: Cricetulus griseus; PD-L1 aAPC/CHO-K1 cells with Jurkat-PD-1-NFAT effector cells, 24 hours. The method, boiled down:
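PD-L1 aAPC/CHO-K1 cells co-cultured with Jurkat-PD-1-NFAT effector cells in RPMI 1640 with 1% FBS, compound top concentration 2 μM, 0.4% DMSO, 24 h at 37 °C. Bio-Glo luminescence read; fold induction normalized to DMSO wells, maximum induction relative to control compound, EC50 from percent control activity versus log concentration.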

For the next test, the target named is PD-1/PD-L1 (Homo sapiens (Human), UniProt Q9NZQ7). The experiment in a line: Homogeneous Time-Resolved Fluorescence (HTRF) PD-1/PD-L1 binding assay. As to conditions: recombinant human PD-1 and PD-L1, 25° C., pH 7.4. In short, it runs like this:
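His-tagged PD-L1 (19-238, 10 nM) and Fc-tagged PD-1 (25-167, 3 nM) preincubated 40 min with inhibitors in PBS pH 7.4, 0.05% Tween-20, 0.1% BSA, 1% DMSO, 25 °C. Eu anti-IgG (1 nM) and anti-His-APC (20 nM) added, 60 min at 25 °C; 665/620 nm ratio fitted for IC50.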
Background: Time-resolved FRET reads energy transfer from a long-lived donor to a nearby acceptor.

The next test concerns the target PD-L1 (Homo sapiens (Human), UniProt Q9NZQ7). Kind of test: PD-L1 whole blood internalization assay. Format: cell-based. As to conditions: 1 ng/ml human interferon γ, PD-L1 expression on CD14+ cells, read-out: Whole Blood (24 HR) IC50. The method, boiled down: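 Normal human whole blood was exposed to a range of test compound concentrations together with 1 ng/ml human interferon γ, then stained for PD-L1 and CD14 for 30 minutes at room temperature in the dark. After red cell lysis/fixation and centrifugation, CD14+ cells were analyzed by flow cytometry for PD-L1 MFI, and IC50 values came from percent inhibition versus log concentration fits.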

Test [2] relates to U2OS/PD-L1 cells and Jurkat-PD-1-SHP cells. Kind of test: Src homology region 2 domain-containing phosphatase (SHP) assay. Format: cell-based. As to conditions: Homo sapiens; U2OS/PD-L1 cells with Jurkat-PD-1-SHP cells, 2 hours. The method, boiled down:
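U2OS/PD-L1 cells (5000/well) in RPMI1640 with 1% FBS were treated with serially diluted compounds (0.05% DMSO final) and co-incubated with 5,000 Jurkat-PD-1-SHP cells for 2 h at 37 °C. PathHunter enzyme-fragment chemiluminescence was read after 1 h at room temperature. IC50 came from percent-of-control activity versus log concentration.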

Each structure is given as a SMILES string. Where only a bound is given, the exact number is not on record here.

PD-1/PD-L1, sequence (Q9NZQ7 19-238): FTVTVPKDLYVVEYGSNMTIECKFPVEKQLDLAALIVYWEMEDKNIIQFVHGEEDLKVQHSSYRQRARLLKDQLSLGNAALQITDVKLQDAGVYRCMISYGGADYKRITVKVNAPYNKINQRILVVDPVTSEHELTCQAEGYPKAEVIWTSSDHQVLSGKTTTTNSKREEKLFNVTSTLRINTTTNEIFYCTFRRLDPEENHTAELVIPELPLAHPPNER
PD-L1, sequence (Q9NZQ7 19-290): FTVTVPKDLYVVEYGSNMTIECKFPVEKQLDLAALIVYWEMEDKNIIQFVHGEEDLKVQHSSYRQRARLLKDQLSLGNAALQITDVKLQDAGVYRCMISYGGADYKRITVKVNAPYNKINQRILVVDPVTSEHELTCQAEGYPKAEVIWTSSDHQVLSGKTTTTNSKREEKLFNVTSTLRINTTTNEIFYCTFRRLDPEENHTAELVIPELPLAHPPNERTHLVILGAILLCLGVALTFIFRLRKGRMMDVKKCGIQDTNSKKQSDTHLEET

With `Cc1nc(Nc2cccc(-c3cccc(-c4nc5cc(CN6CCC(C(=O)O)CC6)cc(C#N)c5o4)c3C)c2C)c2ncc(CN3CC[C@](C)(O)C3)cc2n1` [Example 3, (S)-1-((7-cyano-2-(3′-(7-((3-hydroxy-3-methylpyrrolidin-1-yl)methyl)-2-methylpyrido[3,2-d]pyrimidin-4-ylamino)-2,2′-dimethylbiphenyl-3-yl)benzo[d]oxazol-5-yl)methyl)piperidine-4-carboxylic Acid], the EC50 (commonly the concentration needed to bring the measured effect to its halfway point) in test [1] fell in the range of 10 to 100 nM. Besides, the IC50 (in general, the point on the concentration scale where inhibition reaches its midpoint) at PD-1/PD-L1 is ≤ 10 nM; on PD-L1, 10 to 100 nM; in test [2], ≤ 10 nM.

The compound `Cc1nc(Nc2cccc(-c3cccc(-c4nc5cc(CN6CCC(C(=O)O)CC6)cc(C#N)c5o4)c3C)c2C)c2ncc(CN3CC[C@@H](O)C3)cc2n1` [Example 1, (R)-1-((7-cyano-2-(3′-(7-((3-hydroxypyrrolidin-1-yl)methyl)-2-methylpyrido[3,2-d]pyrimidin-4-ylamino)-2,2′-dimethylbiphenyl-3-yl)benzo[d]oxazol-5-yl)methyl)piperidine-4-carboxylic Acid] registered an EC50 in test [1] of 10 to 100 nM. Besides, the IC50 on PD-1/PD-L1 was ≤ 10 nM; at PD-L1, 10 to 100 nM; in test [2], ≤ 10 nM.

In test [1], `Cc1nc(Nc2cccc(-c3cccc(-c4nc5cc(CN6CC[C@@](C)(C(=O)O)C6)cc(C#N)c5o4)c3C)c2C)c2ncc(CN3CC[C@](C)(O)C3)cc2n1` [Example 13, (R)-1-((7-cyano-2-(3′-(7-(((S)-3-hydroxy-3-methylpyrrolidin-1-yl)methyl)-2-methylpyrido[3,2-d]pyrimidin-4-ylamino)-2,2′-dimethylbiphenyl-3-yl)benzo[d]oxazol-5-yl)methyl)-3-methylpyrrolidine-3-carboxylic Acid] showed a half-maximal effective concentration (EC50) of 10 to 100 nM. The IC50 at PD-1/PD-L1 is ≤ 10 nM; on PD-L1, 10 to 100 nM; in test [2] it was ≤ 10 nM.

`Cc1nc(Nc2cccc(-c3cccc(-c4nc5cc(CN6CC[C@@H](C(=O)O)C6)cc(C#N)c5o4)c3C)c2C)c2ncc(CN3CC[C@](C)(O)C3)cc2n1` [Example 8, (R)-1-((7-cyano-2-(3′-(7-(((S)-3-hydroxy-3-methylpyrrolidin-1-yl)methyl)-2-methylpyrido[3,2-d]pyrimidin-4-ylamino)-2,2′-dimethylbiphenyl-3-yl)benzo[d]oxazol-5-yl)methyl)pyrrolidine-3-carboxylic Acid] gave an EC50 in test [1] of 10 to 100 nM. For the same compound, the IC50 at PD-1/PD-L1 is ≤ 10 nM; at PD-L1, 10 to 100 nM; in test [2], ≤ 10 nM.
